Assay results: BindingDB's records for doi:10.1016/j.ejmech.2018.01.013 (University of Rennes 1, 2018)

Test: Inhibition of human 20S constitutive proteasome beta-1 using Z-LLE-betaNA as substrate incubated for 15 mins measured for 45 mins by fluorescence assay

IC50	SMILES
11.4 µM	C[C@H](NC(=O)[C@H](Cc1ccc(OCc2ccccc2)cc1)NC(=O)OC(C)(C)C)C(=O)N[C@@H](C[C@]1(O)C(=O)N(C)c2ccccc21)C(=O)NCc1ccccc1
15.1 µM	C[C@H](NC(=O)[C@H](Cc1ccc(OCc2ccccc2)cc1)NC(=O)OC(C)(C)C)C(=O)N[C@@H](C[C@]1(O)C(=O)Nc2ccccc21)C(=O)NCC(C)(C)C
17.2 µM	C[C@H](NC(=O)[C@H](Cc1ccc(OCc2ccccc2)cc1)NC(=O)OC(C)(C)C)C(=O)N[C@@H](C[C@@]1(O)C(=O)Nc2ccccc21)C(=O)NCc1ccccc1
2.14 µM	C[C@H](NC(=O)[C@H](Cc1ccc(OCc2ccccc2)cc1)NC(=O)OC(C)(C)C)C(=O)N[C@@H](C[C@]1(O)C(=O)Nc2ccccc21)C(=O)NCc1cccc2ccccc12
13 µM	NCCCC[C@H](NC(=O)[C@@H](N)Cc1ccc(OCc2ccccc2)cc1)C(=O)N[C@@H](C[C@]1(O)C(=O)Nc2ccccc21)C(=O)NCc1ccccc1
30 µM	C[C@H](NC(=O)[C@@H](N)Cc1ccc(OCc2ccccc2)cc1)C(=O)N[C@@H](C[C@]1(O)C(=O)Nc2ccccc21)C(=O)NCc1ccccc1
4.9 µM	C[C@H](NC(=O)[C@H](Cc1ccc(OCc2ccccc2)cc1)NC(=O)OC(C)(C)C)C(=O)N[C@@H](C[C@]1(O)C(=O)Nc2ccccc21)C(=O)NCCc1ccccc1
17.1 µM	C[C@@H](NC(=O)[C@H](Cc1ccc(OCc2ccccc2)cc1)NC(=O)OC(C)(C)C)C(=O)N[C@@H](C[C@]1(O)C(=O)Nc2ccccc21)C(=O)NCc1ccccc1
35 µM	C[C@H](NC(=O)c1ccc(OCc2ccccc2)cc1)C(=O)N[C@@H](C[C@]1(O)C(=O)Nc2ccccc21)C(=O)NCc1ccccc1
17.6 µM	C[C@H](NC(=O)[C@H](Cc1ccc(OCc2ccccc2)cc1)NC(=O)OC(C)(C)C)C(=O)N[C@@H](C[C@]1(O)C(=O)Nc2ccccc21)C(=O)NCc1ccc(-c2ccccc2)cc1
13.4 µM	C[C@H](NC(=O)[C@H](Cc1ccc(OCc2ccccc2)cc1)NC(=O)OC(C)(C)C)C(=O)N[C@@H](C[C@@]1(O)C(=O)N(C)c2ccccc21)C(=O)NCc1ccccc1
2.2 µM	C[C@H](NC(=O)[C@H](Cc1ccc(OCc2ccccc2)cc1)NC(=O)OC(C)(C)C)C(=O)N[C@@H](C[C@]1(O)C(=O)Nc2ccccc21)C(=O)NC(c1ccccc1)c1ccccc1
40 µM	C[C@H](NC(=O)Cc1cccc(Oc2ccccc2)c1)C(=O)N[C@@H](C[C@]1(O)C(=O)Nc2ccccc21)C(=O)NCc1ccccc1
31.9 µM	CC(O)[C@@H](NC(=O)c1ccc(OCc2ccccc2)cc1)C(=O)N[C@@H](C[C@]1(O)C(=O)Nc2ccccc21)C(=O)NCc1ccccc1 (stereo not given in full)
20.1 µM	CC(C)(C)OC(=O)N[C@@H](Cc1ccc(OCc2ccccc2)cc1)C(=O)N[C@@H](CC(N)=O)C(=O)N[C@@H](C[C@]1(O)C(=O)Nc2ccccc21)C(=O)NCc1ccccc1
